Reference: PubChem BioAssay AID330 (DTP/NCI, 2004)
Several values for one entry are separate records, joined by “and”; a condition that tells them apart may be missing. Equal values may be shown once. Inconclusive results and toxic doses are left out.

Test system: P388 leukemia ip, CD2F1 mice, survival T/C
Assay: NCI In Vivo Anticancer Drug Screen. Data for tumor model P388 Leukemia (intraperitoneal) in CD2F1 (CDF1) mice
Details: endpoint: median survival time, higher = longer survival
Method in brief: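 Mice carrying the transplanted tumor received test compound or vehicle. Survival was recorded in each group, and the value is the treated-group measurement divided by that of the vehicle-treated control group.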

[1] = dose: 50.0 mg/kg/injection, schedule: Q01DX005 (ip), vehicle: saline with Tween-80
[2] = dose: 100.0 mg/kg/injection, schedule: Q01DX005 (ip), vehicle: saline with Tween-80
[3] = dose: 200.0 mg/kg/injection, schedule: Q01DX005 (ip), vehicle: saline with Tween-80
[4] = dose: 50.0 mg/kg/injection, schedule: Q01DX005 (ip), vehicle: Klucel (hydroxypropylcellulose) (HPC)
[5] = dose: 100.0 mg/kg/injection, schedule: Q01DX005 (ip), vehicle: Klucel (hydroxypropylcellulose) (HPC)
[6] = dose: 6.25 mg/kg/injection, schedule: Q01DX009 (ip), vehicle: saline with Tween-80
[7] = dose: 12.5 mg/kg/injection, schedule: Q01DX009 (ip), vehicle: saline with Tween-80
[8] = dose: 100.0 mg/kg/injection, schedule: Q01DX009 (ip), vehicle: saline with Tween-80
[9] = dose: 50.0 mg/kg/injection, schedule: Q01DX009 (ip), vehicle: saline
[10] = dose: 100.0 mg/kg/injection, schedule: Q01DX009 (ip), vehicle: saline
[11] = dose: 200.0 mg/kg/injection, schedule: Q01DX009 (ip), vehicle: saline
[12] = dose: 25.0 mg/kg/injection, schedule: Q01DX009 (ip), vehicle: saline with Tween-80

## COC(/C=N/OC(=O)c1ccccc1)c1ccccc1 (stereo not given)
dose: 25.0 mg/kg/injection, schedule: Q04DX003 (ip), vehicle: saline with Tween-80
  T/C: 98 % of control and 90 % of control
dose: 50.0 mg/kg/injection, schedule: Q04DX003 (ip), vehicle: saline with Tween-80
  T/C: 92 % of control

## Cc1nc(N)[nH]c(=O)c1CCCC#N
dose: 60.0 mg/kg/injection, schedule: Q01DX005 (ip), vehicle: Klucel (hydroxypropylcellulose) (HPC)
  T/C: 105 % of control
dose: 120.0 mg/kg/injection, schedule: Q01DX005 (ip), vehicle: Klucel (hydroxypropylcellulose) (HPC)
  T/C: 108 % of control

## Cc1cc(NC(=O)C(=O)CC(=O)c2cccnc2)no1
[1]
  T/C: 102 % of control
[2]
  T/C: 101 % of control
[3]
  T/C: 101 % of control

## C=CCOc1cc2c(cc1C(C)c1cc(OC)c(OC)c(OC)c1)OCO2 (stereo not given)
[1]
  T/C: 101 % of control
[2]
  T/C: 99 % of control
[3]
  T/C: 108 % of control

## O=C(c1ccc(Cl)nc1)c1cccs1
dose: 50.0 mg/kg/injection, schedule: Q01DX005 (ip), vehicle: distilled water + alcohol
  T/C: 98 % of control
dose: 100.0 mg/kg/injection, schedule: Q01DX005 (ip), vehicle: distilled water + alcohol
  T/C: 108 % of control
dose: 200.0 mg/kg/injection, schedule: Q01DX005 (ip), vehicle: distilled water + alcohol
  T/C: 110 % of control

## CC1CC=C2C=C(Cl)C=CC2(C)C1C (stereo not given)
[1]
  T/C: 98 % of control
[2]
  T/C: 96 % of control
[3]
  T/C: 91 % of control

## CCC1(O)CC(OC2CC(N(C)C)C(OC3CC4OC5CC(=O)C(C)OC5OC4C(C)O3)C(C)O2)c2c(cc3c(c2O)C(=O)c2c(O)ccc(O)c2C3=O)C1C(=O)OC (stereo not given)
dose: 0.5 mg/kg/injection, schedule: Q04DX003 (ip), vehicle: other
  T/C: 123 % of control
dose: 0.5 mg/kg/injection, schedule: Q04DX003 (ip), vehicle: saline with Tween-80
  T/C: 112 % of control and 110 % of control and 118 % of control
dose: 0.5 mg/kg/injection, schedule: Q04DX003 (ip), vehicle: water
  T/C: 113 % of control
dose: 0.64 mg/kg/injection, schedule: Q04DX003 (ip), vehicle: water
  T/C: 109 % of control
dose: 1.0 mg/kg/injection, schedule: Q04DX003 (ip), vehicle: water
  T/C: 119 % of control
dose: 1.08 mg/kg/injection, schedule: Q04DX003 (ip), vehicle: water
  T/C: 115 % of control
dose: 1.8 mg/kg/injection, schedule: Q04DX003 (ip), vehicle: water
  T/C: 118 % of control
dose: 1.94 mg/kg/injection, schedule: Q04DX003 (ip), vehicle: water
  T/C: 118 % of control
dose: 2.0 mg/kg/injection, schedule: Q04DX003 (ip), vehicle: saline with Tween-80
  T/C: 170 % of control
dose: 3.24 mg/kg/injection, schedule: Q04DX003 (ip), vehicle: water
  T/C: 124 % of control
dose: 5.0 mg/kg/injection, schedule: Q04DX003 (ip), vehicle: water
  T/C: 114 % of control

## CCCCCCCCCC(C)CCCCC (stereo not given)
dose: 25.0 mg/kg/injection, schedule: Q01DX001 (ip), vehicle: saline with Tween-80
  T/C: 90 % of control
dose: 50.0 mg/kg/injection, schedule: Q01DX001 (ip), vehicle: saline with Tween-80
  T/C: 100 % of control
dose: 100.0 mg/kg/injection, schedule: Q01DX001 (ip), vehicle: saline with Tween-80
  T/C: 100 % of control

## Cn1c(Br)c(Br)c(=O)n(C)c1=O
[4]
  T/C: 99 % of control
[5]
  T/C: 100 % of control
dose: 200.0 mg/kg/injection, schedule: Q01DX005 (ip), vehicle: Klucel (hydroxypropylcellulose) (HPC)
  T/C: 100 % of control

## CCCCCCCCCCCCCCCCCCCCCC(=O)Nc1ccn(C2OC(CO)C(O)C2O)c(=O)n1 (stereo not given)
dose: 1.56 mg/kg/injection, schedule: Q01DX009 (ip), vehicle: saline with Tween-80
  T/C: 155 % of control
dose: 3.12 mg/kg/injection, schedule: Q01DX009 (ip), vehicle: saline with Tween-80
  T/C: 198 % of control and 209 % of control
[6]
  T/C: 106 % of control and 206 % of control and 235 % of control
[7]
  T/C: 256 % of control and 309 % of control
[8]
  T/C: 195 % of control

## CC(Cl)C(=O)c1ccc(N)cc1 (stereo not given)
dose: 50.0 mg/kg/injection, schedule: Q01DX009 (ip), vehicle: Klucel (hydroxypropylcellulose) (HPC)
  T/C: 99 % of control
dose: 100.0 mg/kg/injection, schedule: Q01DX009 (ip), vehicle: Klucel (hydroxypropylcellulose) (HPC)
  T/C: 99 % of control
dose: 200.0 mg/kg/injection, schedule: Q01DX009 (ip), vehicle: Klucel (hydroxypropylcellulose) (HPC)
  T/C: 99 % of control

## Cc1ccc2ccccc2c1C(=N)c1cc2ccccc2c2ccccc12
[4]
  T/C: 105 % of control
[5]
  T/C: 87 % of control

## N=c1c2ncn(C3OC(COP(=O)(O)O)C(O)C3O)c2ncn1O (stereo not given)
[9]
  T/C: 97 % of control
[10]
  T/C: 97 % of control
[11]
  T/C: 95 % of control
dose: 400.0 mg/kg/injection, schedule: Q01DX009 (ip), vehicle: saline
  T/C: 97 % of control

## C=CCC(NC(=O)CC)C(=O)O (stereo not given)
[9]
  T/C: 92 % of control
[10]
  T/C: 92 % of control
[11]
  T/C: 103 % of control

## O=C1[C@H]2CCC[C@H]2[C@H]2CCC[C@@H]12
[12]
  T/C: 112 % of control
[8]
  T/C: 119 % of control
dose: 200.0 mg/kg/injection, schedule: Q01DX009 (ip), vehicle: saline with Tween-80
  T/C: 105 % of control

## CC(N)C(O)C(C)C(=O)O (stereo not given)
dose: 12.5 mg/kg/injection, schedule: Q01DX009 (ip), vehicle: water
  T/C: 111 % of control
dose: 25.0 mg/kg/injection, schedule: Q01DX009 (ip), vehicle: water
  T/C: 107 % of control
dose: 50.0 mg/kg/injection, schedule: Q01DX009 (ip), vehicle: water
  T/C: 107 % of control
dose: 100.0 mg/kg/injection, schedule: Q01DX009 (ip), vehicle: water
  T/C: 98 % of control
dose: 200.0 mg/kg/injection, schedule: Q01DX009 (ip), vehicle: water
  T/C: 102 % of control

## N#Cc1cn(N(CCO)CCO)c(=O)[nH]c1=O
dose: 25.0 mg/kg/injection, schedule: Q01DX005 (ip), vehicle: saline
  T/C: 105 % of control
dose: 50.0 mg/kg/injection, schedule: Q01DX005 (ip), vehicle: saline
  T/C: 106 % of control
dose: 100.0 mg/kg/injection, schedule: Q01DX005 (ip), vehicle: saline
  T/C: 105 % of control
dose: 200.0 mg/kg/injection, schedule: Q01DX005 (ip), vehicle: saline
  T/C: 103 % of control

## FC(F)(F)c1ccc2cc(C3(C4CCNCC4)CCCO3)c3ccc(C(F)(F)F)cc3c2c1 (stereo not given)
dose: 12.5 mg/kg/injection, schedule: Q01DX009 (ip), vehicle: distilled water + Tween-80
  T/C: 104 % of control
dose: 25.0 mg/kg/injection, schedule: Q01DX009 (ip), vehicle: distilled water + Tween-80
  T/C: 95 % of control

## Cc1csc2nc(-c3ccccc3)c(/C=N/NC(=O)CN(C)C)n12
dose: 60.0 mg/kg/injection, schedule: Q01DX005 (ip), vehicle: saline with Tween-80
  T/C: 110 % of control
dose: 120.0 mg/kg/injection, schedule: Q01DX005 (ip), vehicle: saline with Tween-80
  T/C: 103 % of control
dose: 240.0 mg/kg/injection, schedule: Q01DX005 (ip), vehicle: saline with Tween-80
  T/C: 99 % of control

## FC(F)(F)C[P+](c1ccccc1)(c1ccccc1)c1ccccc1
dose: 12.5 mg/kg/injection, schedule: Q01DX001 (ip), vehicle: saline
  T/C: 100 % of control and 109 % of control
dose: 25.0 mg/kg/injection, schedule: Q01DX001 (ip), vehicle: saline
  T/C: 108 % of control and 117 % of control
dose: 50.0 mg/kg/injection, schedule: Q01DX001 (ip), vehicle: saline
  T/C: 104 % of control

## N#CN(Cc1ccccc1)C(c1ccccc1)(c1ccccc1)c1ccccc1.[I][Sn]([c]1ccccc1)([c]1ccccc1)[c]1ccccc1
dose: 3.12 mg/kg/injection, schedule: Q01DX005 (ip), vehicle: saline with Tween-80
  T/C: 98 % of control
dose: 6.25 mg/kg/injection, schedule: Q01DX005 (ip), vehicle: saline with Tween-80
  T/C: 92 % of control

## CC1(C)CC(OP(=[Se])(c2ccccc2)c2ccccc2)CC(C)(C)N1O
dose: 12.5 mg/kg/injection, schedule: Q01DX001 (ip), vehicle: Klucel (hydroxypropylcellulose) (HPC)
  T/C: 96 % of control
dose: 25.0 mg/kg/injection, schedule: Q01DX001 (ip), vehicle: Klucel (hydroxypropylcellulose) (HPC)
  T/C: 99 % of control
dose: 50.0 mg/kg/injection, schedule: Q01DX001 (ip), vehicle: Klucel (hydroxypropylcellulose) (HPC)
  T/C: 104 % of control

## O=C1CC(c2ccccc2)NCCCCN2C(=O)C=Cc3ccccc3C2CCN1 (stereo not given)
dose: 6.25 mg/kg/injection, schedule: Q01DX009 (ip), vehicle: Klucel (hydroxypropylcellulose) (HPC)
  T/C: 100 % of control
dose: 12.5 mg/kg/injection, schedule: Q01DX009 (ip), vehicle: Klucel (hydroxypropylcellulose) (HPC)
  T/C: 94 % of control

## OC(c1cc2cc(Br)ccc2c2cc(Br)ccc12)C1CCCCN1 (stereo not given)
[6]
  T/C: 107 % of control
[7]
  T/C: 109 % of control
[12]
  T/C: 101 % of control
